Test results: patent EP1614683B1, “Indazole compounds and pharmaceutical compositions for inhibiting protein kinases, and methods for their use” (priority 1999, dated 2001)
“And” between values parts separate entries of the source, which are not always exact repeats. Identical values can stand only once. Like-named read-outs stand apart in the source and are kept apart here. Marks after values point to notes of the source that are not given here.

Columns and labels:
[1] = vehicle PEG400:H2O pH 2.3 30:70
in vivo = conditions: mouse, plasma, pH 2.3
LCK tyrosine kinase = LCK tyrosine kinase (Homo sapiens, UniProt P06239, C224D/P223M); experiment: LCK spectrophotometric assay; type: biochemical; conditions: Table 1, compound concentration 1 µM; for inhibition at 1 µM: read-out: Lck-P* (% inhibition); for Lck-P* (% inhibition): 1 µM
Method: The spectrophotometric assay was carried out as described above for VEGF-R2, except for the following changes in concentration: LCK = 60 nM, MgCl2 = 0 mM, poly(E4Y1) = 20 mM.

[2] = system: human umbilical vein endothelial cells (HUVEC); experiment: HUVEC proliferation assay (VEGF-stimulated, MTT); type: cell-based; conditions: Homo sapiens, HUVEC, Table 1
human FGF-R1 = human FGF-R1 (Homo sapiens, UniProt P11362, C488A/C584S/L457V); experiment: FGF-R spectrophotometric assay; type: biochemical; conditions: Table 1, compound concentration 1 µM; for inhibition at 1 µM: read-out: FGF-P* (% inhibition); for FGF-P* (% inhibition): 1 µM
Method: The spectrophotometric assay was carried out as described above for VEGF-R2, except for the following changes in concentration: FGF-R = 50 nM, ATP = 2 mM, and poly(E4Y1) =15 mM.

[3] = target: unphosphorylated VEGF-R2Δ50 (Homo sapiens, UniProt P35968, DEL940-989/E990V); experiment: biochemical; conditions: for inhibition at 1 µM: read-out: FLVK ** (% inhibition, cell marked *); for inhibition at 0.05 µM: read-out: FLVK ** (% inhibition)
in vitro = in vitro ADME, human; conditions: human liver microsomes, 5 µM test compound, 37 °C, 2 h; for remaining at 2 h, 5 µM: read-out: % remain (HLM, 2 h)
Method: Compound metabolism in human liver microsomes was measured by LC-MS analytical assay procedures as follows. First, human liver microsomes (HLM) were thawed and diluted to 5 mg/mL with cold 100 mM potassium phosphate (KPO4) buffer. Appropriate amounts of KPO4 buffer, NADPH-regenerating solution (containing B-NADP, glucose-6-phosphate, glucose-6-phosphate dehydrogenase, and MgCl2), and HLM were preincubated in 13 x 100 mm glass tubes at 37 C for 10 min. (3 tubes per test compound--triplicate). Test compound (5 µM final) was added to each tube to initiate reaction and was mixed by gentle vortexing, followed by incubation at 37 °C. At t=0, 2 h, a 250-µL sample was removed from each incubation tube to separate 12 x 75 mm glass tubes containing 1 mL ice-cold acetonitrile with 0.05 µM reserpine. […] Supernatant was transferred to new 12 x 75 mm glass tubes and evaporated by Speed-Vac centrifugal vacuum evaporator. Samples were reconstituted in 200 µL 0.1 % formic acid/acetonitrile (90/10) and vortexed vigorously to dissolve. The samples were then transferred to separate polypropylene microcentrifuge tubes and centrifuged at 14000 x g for 10 min. (Fisher Micro 14, S/N M0017580). For each replicate (#1-3) at each timepoint (0 and 2 h), an aliquot sample of each test compound was combined into a single HPLC vial insert (6 total samples) for LC-MS analysis, which is described below.

[4] = + albumin, read-out: HUVEC + albumin IC50

Chain of LCK tyrosine kinase (P06239 223-509 P223M/C224D): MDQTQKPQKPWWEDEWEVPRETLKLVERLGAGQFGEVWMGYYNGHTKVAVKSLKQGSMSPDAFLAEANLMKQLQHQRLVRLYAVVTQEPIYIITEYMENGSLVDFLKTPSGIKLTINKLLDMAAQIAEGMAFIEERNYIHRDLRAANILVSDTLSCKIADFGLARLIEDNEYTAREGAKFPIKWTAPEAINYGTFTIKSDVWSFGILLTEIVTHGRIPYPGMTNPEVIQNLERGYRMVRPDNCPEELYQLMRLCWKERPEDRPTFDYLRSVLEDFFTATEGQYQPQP
Chain of unphosphorylated VEGF-R2Δ50 (P35968 with tags, fused parts or gaps DEL940-989/E990V limits assumed): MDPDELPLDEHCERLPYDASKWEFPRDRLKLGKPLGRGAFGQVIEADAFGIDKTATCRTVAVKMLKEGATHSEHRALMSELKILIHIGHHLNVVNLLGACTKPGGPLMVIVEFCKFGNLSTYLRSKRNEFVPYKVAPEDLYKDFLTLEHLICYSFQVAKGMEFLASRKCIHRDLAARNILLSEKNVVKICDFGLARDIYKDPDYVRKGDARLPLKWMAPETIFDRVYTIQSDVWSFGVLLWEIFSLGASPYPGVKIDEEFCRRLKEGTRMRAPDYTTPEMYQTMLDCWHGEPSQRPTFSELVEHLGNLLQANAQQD
Chain of human FGF-R1 (P11362 456-766 L457V/C488A/C584S): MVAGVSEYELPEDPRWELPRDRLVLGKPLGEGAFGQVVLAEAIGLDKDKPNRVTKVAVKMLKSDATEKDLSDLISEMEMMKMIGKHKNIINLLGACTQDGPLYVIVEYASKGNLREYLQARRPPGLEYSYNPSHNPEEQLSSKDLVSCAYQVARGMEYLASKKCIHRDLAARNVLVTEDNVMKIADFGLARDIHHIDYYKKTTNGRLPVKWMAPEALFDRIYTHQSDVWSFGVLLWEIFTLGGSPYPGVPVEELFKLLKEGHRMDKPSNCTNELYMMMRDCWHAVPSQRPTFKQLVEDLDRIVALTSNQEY

Row | Compound | T1/2 ([1]; PO, 25 mg/kg) [h] | AUC (in vivo; po, 25 mg/kg) [ng·h/mL] | inhibition at 1 µM (LCK tyrosine kinase) [%] | IC50 [2, 4] [nM] | inhibition at 1 µM (human FGF-R1) [%] | % remain (HLM, 2 h) (in vitro) | inhibition at 0.05 µM [3] [%] | other results
1 | O=C(NNc1ccccn1)c1ccccc1Sc1ccc2c(/C=C/c3ccccn3)n[nH]c2c1 [35 (n)] | 1.4 | 4820 | – | – | – | – | – | –
2 | CN(O)C(=O)c1ccccc1Sc1ccc2c(/C=C/c3ccccn3)n[nH]c2c1 [35 (o)] | 1.0 | 683 | – | – | – | – | – | Cmin (7 hr conc.) ([1]; PO, 25 mg/kg): 3 ng/mL
3 | COc1cccc(C(=O)Nc2cccc(C(=O)c3ccc4c(/C=C/c5ccccn5)n[nH]c4c3)c2)c1 [41 (bb)] | – | – | – | – | – | – | – | T1/2 ([1]; PO, 50 mg/kg): 2.0 h; AUC (in vivo; po, 50 mg/kg): 2180 ng·h/mL
4 | CC(=O)Nc1cc(C(=O)c2ccc3c(/C=C/c4ccccn4)n[nH]c3c2)ccc1C [41 (gg)] | 1.1 | 2690 | – | – | – | – | – | –
5 | Cc1cc(C(=O)Nc2cc(C(=O)c3ccc4c(/C=C/c5ccccn5)n[nH]c4c3)ccc2C)n(C)n1 [41 (hh)] | – | 5600 | – | – | – | – | – | half-life (in vivo; po, 25 mg/kg): 7.9 h
6 | Cc1cc(C(=O)Nc2cc(C(=O)c3ccc4c(/C=C/c5ccccn5)n[nH]c4c3)c(C)cc2C)n(C)n1 [41 (mm)] | – | 2260 | – | – | – | – | – | half-life (in vivo; po, 25 mg/kg): 2.5 h
7 | Cn1nc(C(C)(C)C)cc1C(=O)Nc1cccc(C(=O)c2ccc3c(/C=C/c4ccccn4)n[nH]c3c2)c1 [41 (n)] | – | – | – | – | – | – | – | T1/2 ([1]; IP, 25 mg/kg): 3.2 h; T1/2 ([1]; PO, 50 mg/kg): 1.9 h; AUC (in vivo; ip, 25 mg/kg): 9410 ng·h/mL; AUC (in vivo; po, 50 mg/kg): 9070 ng·h/mL
8 | Cc1cc(C(=O)Nc2cccc(C(=O)c3ccc4c(/C=C/c5ccccn5)n[nH]c4c3)c2)cc(Cl)n1 [41 (q)] | 5.2 | – | – | – | – | – | – | AUC (in vivo; ip, 25 mg/kg): > 27000 ng·h/mL
9 | C=CCn1nc(C)cc1C(=O)Nc1cccc(C(=O)c2ccc3c(/C=C/c4ccccn4)n[nH]c3c2)c1 [41 (t)] | 4.0 | > 22500 | – | – | – | – | – | –
10 | COc1cc(C(=O)Nc2cccc(C(=O)c3ccc4c(/C=C/c5ccccn5)n[nH]c4c3)c2)cc(Cl)n1 [41 (u)] | 5.6 | 875 | – | – | – | – | – | –
11 | Cc1cc(C(=O)Nc2cccc(C(=O)c3ccc4c(/C=C/c5ccccn5)n[nH]c4c3)c2)n(C(C)C)n1 [41 (x)] | 4.2 | 24200 | – | – | – | – | – | –
12 | CCn1nc(C)cc1C(=O)Nc1cccc(Oc2ccc3c(/C=C/c4c[nH]cn4)n[nH]c3c2)c1 [Reference Example 32(b), 6-[3-((1-Ethyl-3-methyl-1H-pyrazol-5-yl)carboxamido)phenoxy]-3-E-[2-(1H-imidazol-4-yl)ethenyl]-1H-indazole] | 2.1 | 490 | 70 | 21 | 95 | – | – | –
13 | CCn1nc(C)cc1C(=O)Nc1cccc(Oc2ccc3c(/C=C/c4c[nH]c(C)n4)n[nH]c3c2)c1 [Reference Example 32(c), 6-[3-((1-Ethyl-3-methyl-1H-pyrazol-5-yl)carboxamido)phenoxy]-3-E-[2-(2-methylimidazol-4-yl)ethenyl]-1H-indazole] | 2.4 | 388 | 52 | > 30 | 96 | – | – | –
14 | O=C(NOCC1CC1)c1ccccc1Sc1ccc2c(/C=C/c3ccccn3)n[nH]c2c1 [Reference Example 35(s), 6-[2-((Cyclopropyl)methoxycarbamoyl)phenylsulfanyl]-3-E-[2-(pyridin-2-yl)ethenyl]-1H-indazole] | – | – | 18 | 4.6 | 64 | – | – | inhibition at 1 µM [3]: 60%; remaining at 2 h, 5 µM (in vitro): 16%
15 | CCCONC(=O)c1ccccc1Sc1ccc2c(/C=C/c3ccccn3)n[nH]c2c1 [Reference Example 35(t), 6-[2-(n-Propoxycarbamoyl)phenylsulfanyl]-3-E-[2-(pyridin-2-yl)ethenyl]-1H-indazole] | – | – | 12 | 4 | 63 | 7% | – | inhibition at 1 µM [3]: 59%
16 | O=C(Nc1nccs1)c1ccccc1Sc1ccc2c(/C=C/c3ccccn3)n[nH]c2c1 [Reference Example 35(y), 6-[2-(Thiazol-2-ylcarbamoyl)phenylsulfanyl]-3-E-[2-(pyridin-2-yl)ethenyl]-1H-indazole] | – | – | 29 | 1 to 3 | 82 | 7% | 99 | –
17 | CCONC(=O)c1cccc(F)c1Sc1ccc2c(/C=C/c3ccccn3)n[nH]c2c1 [Reference Example 37(a), 6-[6-Fluoro-2-(ethoxycarbamoyl)phenylsulfanyl}-3-E-[2-(pyridin-2-yl)ethenyl]-1H-indazole] | – | – | 6 | 15 | 35 | 21, ! % | 57 | –
18 | CC(C)ONC(=O)c1cccc(F)c1Sc1ccc2c(/C=C/c3ccccn3)n[nH]c2c1 [Reference Example 37(c), 6-[6-fluoro-2-(isopropoxycarbamoyl)phenylsulfanyl]-3-E-[2-(pyridin-2-yl)ethenyl]-1H-indazole] | – | – | 12 | 12 | 39 | 21% | 83 | –
19 | COc1cccc(C(=O)Nc2cccc(C(=O)c3ccc4c(/C=C/c5ccccn5)n[nH]c4c3)c2)c1 [Reference Example 41(bb), 6-[3-(3-methoxybenzamido)benzoyl]-3-E-[2-(pyridin-2-yl)ethenyl]-1H-indazole] | – | – | 76 | 1 to 3 | 88 | 110% | 99 | –
20 | CC(C)=CC(=O)Nc1cccc(C(=O)c2ccc3c(/C=C/c4ccccn4)n[nH]c3c2)c1 [Reference Example 41(dd), 6-[3-(3,3-dimethylacrylamido)benzoyl]-3-E-[2-(pyridin-2-yl)ethenyl]-1H-indazole] | – | – | 50 | 5.8 | 69 | 7% | 98 | –
21 | Cc1cc(C(=O)Nc2cccc(C(=O)c3ccc4c(/C=C/c5ccccn5)n[nH]c4c3)c2)nn1C [Reference Example 41(i), 6-[3-((1,5-dimethyl-1H-pyrazol-3-yl)carboxamido)benzoyl]-3-E-[2-(pyridin-2-yl)ethenyl]-1H-indazole] | – | – | – | – | – | – | 98 | Ki ([3]; FLVK ** (Ki), Table 1): 0.24 nM and 0.04 nM; Lck-P* (% inhibition) (LCK tyrosine kinase): 16%; Lck-P* (% inhibition) (LCK tyrosine kinase; listed as 41(I)): 63%* and 38%*; remaining at 2 h, 5 µM (in vitro): 48%; IC50 ([2]; read-out: HUVEC IC50): 0.25 nM; FGF-P* (% inhibition) (human FGF-R1): 41%; FGF-P* (% inhibition) (human FGF-R1; listed as 41(I)): 66% and 76%
22 | Cc1cc(C(=O)Nc2cc(C(=O)c3ccc4c(/C=C/c5ccccn5)n[nH]c4c3)ccc2C)n(C(C)C)n1 [Reference Example 41(kk), 6-[3-((1-Isopropyl-3-methyl-1H-pyrazol-5-yl)carboxamido)-4-methylbenzoyl]-3-E-[2-(pyridin-2-yl)ethenyl]-1H-indazole] | – | – | 26 | 16 | 97 | 63% | 100 | –
